From patent publication US20240381822A1, “PLANT PART QUALITY” (Valent BioSciences LLC, priority 2023, published 2024)

Key:
Assay type in all cases: in vivo
[1] = system: Flamin' Fury® variety Peaches; assay: Flesh browning of peaches after cold storage (Example 1); details: for % Healthy Fruit: 1-minute dip, 5 degrees Celsius 4 weeks, 1 day room temperature, flesh browning score less than 3
Method: ' Fury® variety Peaches were harvested and maintained at room temperature until treatment. Peaches were divided into 9 equal sets. Each treatment type contained 15 peaches and was repeated 3 times for a total of 45 peaches per treatment. For treatment, water, (S)-abscisic acid (“S-ABA”), methyl jasmonate or a mixture of S-ABA and methyl jasmonate were applied to peaches after harvest via a 1-minute dip at the following concentrations: 1) water only; 2) 0.33 millimolar (“mM”) S-ABA; 3) 3.3 mM S-ABA; 4) 0.33 mM methyl jasmonate; 5) 3.3 mM methyl jasmonate; 6) 0.33 mM S-ABA and 0.33 mM methyl jasmonate; 7) 0.3 mM S-ABA and 3.3 mM methyl jasmonate; 8) 3.3 mM S-ABA and 0.33 mM methyl jasmonate or 9) 3.3 mM S-ABA and 3.3 mM methyl jasmonate. Each treatment includes 0.025% Latron B-1956® (available from J. R. Simplot Company) as an adjuvant. All peaches were subsequently dried for 30 minutes and then stored at 5 degrees Celsius for 4 weeks. Following cold storage all peaches were placed at room temperature for 1 day and then evaluated for flesh browning. Flesh browning was determined using a 6-point scale developed by Crisosto G. M. 2015 wherein a score of 1=no browning, 2=very slight browning in the pit cavity, 3=slight browning in the pit cavity and surrounding tissue, 4=moderate browning on less than 50% of the flesh, 5=severe browning on 50% to 75% of the flesh and 6=extreme browning covering most of the flesh. A flesh browning score of more than 3 was determined as a “flesh browning incident” and a score of less than 3 was determined as “healthy fruit” for efficacy purposes. […] To determine if the mixtures provided unexpected results, the observed combined efficacy (“OCE”) was divided by the expected combined efficacy (“ECE”) wherein the expected ECE is calculated by the Abbott method: wherein ECE is the expected combined efficacy and in which A and B are the quality score provided by application of the single active ingredients. If the ratio between the OCE of the mixture and the ECE of the mixture is greater than 1, then greater than expected interactions are present in the mixture. (Gisi, Synergistic Interaction of Fungicides in Mixtures, The American Phytopathological Society, 86:11, 1273-1279,1996).

[2] = system: Summer Flame 34 variety Peaches; assay: Flesh browning of waxed peaches after cold storage (Example 2); details: for Fold Change from Control (Flesh Browning Average Score): 1.2 mM single active; for Flesh Browning Average Score: 1.2 mM single active in Prima Fresh 55EU wax, 5 degrees Celsius 25 days, 3 day room temperature, 6-point scale
Method: Flesh browning was determined using a 6-point scale developed by Crisosto G. M. 2015 wherein a score of 1=no browning, 2=very slight browning in the pit cavity, 3=slight browning in the pit cavity and surrounding tissue, 4=moderate browning on less than 50% of the flesh, 5=severe browning on 50% to 75% of the flesh and 6=extreme browning covering most of the flesh. A flesh browning score of more than 3 was determined as a “flesh browning incident” and a score of less than 3 was determined as “healthy fruit” for efficacy purposes.
(§1) Summer Flame 34 variety Peaches were harvested and maintained at room temperature until treatment. Peaches were divided into 4 equal sets. Each treatment type contained 32 peaches and was repeated 3 times for a total of 96 peaches per treatment. For treatment, water, (S)-abscisic acid (“S-ABA”), methyl jasmonate or a mixture of S-ABA and methyl jasmonate were mixed in Prima Fresh 55EU wax and applied in a semicommercial mini packing line to simulate commercial packing conditions. Active ingredients were mixed into the wax at the following concentrations: 1) wax only; 2) 1.2 mM S-ABA; 3) 1.2 mM methyl jasmonate; 4) 1.2 mM S-ABA and 1.2 mM methyl jasmonate. All peaches were immediately stored at 5 degrees Celsius for 25 days. Following cold storage all peaches were placed at room temperature for 3 day and then evaluated for flesh browning as described in Example 1, above and also for flesh mealiness.
(§2) Determination of unexpected results was calculated using the method described in Example 1, above.

[3] = system: Summer Flame 34 variety Peaches; assay: Flesh mealiness of waxed peaches after cold storage (Example 2); details: for Fold Change from Control (Flesh Mealiness Average Score): 1.2 mM single active; for Flesh Mealiness Average Score: 1.2 mM single active in Prima Fresh 55EU wax, 5 degrees Celsius 25 days, 3 day room temperature, 3-point scale
Source text: as §1
Flesh mealiness was determined using a 3-point scale developed by Crisosto G. M. 2015 wherein a score of 1=juicy fruit, 2=moderately mealy fruit (small amount of juice released upon squeezing) and 3=severely mealy fruit (almost no juice released upon squeezing). A flesh mealiness score of 2 or more was determined as a “flesh mealiness incident” and a score of 1 was determined as “healthy fruit” for efficacy purposes.
as §2

Cucumbers [4] = assay: Electrolyte leakage of cucumbers after cold storage (Example 3); details: for % Electrolyte Leakage: 2-minute dip, 5 degrees Celsius 11.5 days, then room temperature
Source text: Cucumbers were harvested and waxed and maintained at room temperature until treatment. Cucumbers were divided into 9 equal sets. Each treatment type contained 11-13 cucumbers peaches and was repeated 3 times for a total of 33-39 peaches per treatment. For treatment, water, (S)-abscisic acid (“S-ABA”), methyl jasmonate or a mixture of S-ABA and methyl jasmonate were applied to cucumber after harvest via a 2-minute dip at the following concentrations: 1) water only; 2) 0.3 millimolar (“mM”) S-ABA; 3) 3 mM S-ABA; 4) 0.3 mM methyl jasmonate; 5) 3 mM methyl jasmonate; 6) 0.3 mM S-ABA and 0.3 mM methyl jasmonate; 7) 0.3 mM S-ABA and 3 mM methyl jasmonate; 8) 3 mM S-ABA and 0.3 mM methyl jasmonate or 9) 3 mM S-ABA and 3 mM methyl jasmonate. Each treatment includes 0.025% Latron B-1956® (available from J. R. Simplot Company) as an adjuvant. All cucumbers were subsequently dried for 30 minutes and then stored at 5 degrees Celsius for 11.5 days. Following cold storage all cucumbers were placed at room temperature for 4 days and then evaluated for electrolyte leakage and decay on each of days 1, 2,3 and 4. For electrolyte leakage cucumbers were sliced and a 1-centimeter core sample (i.e. a disc) was taken from each slice. 10 discs were placed in each 50-milliliter centrifuge tube containing 30 milliliter of deionized water and shaken for 25 minutes. Electroconductivity was measured at time zero as soon as the treatments were processed (CO). Electroconductivity was measured again after the discs were shaken in the centrifuge tubes (C1). Finally, electroconductivity was measured after boiling the cucumber sample for 20 minutes and then cooled rapidly (C2). % electrolyte leakage was calculated by the following formula (C1−C0)/C2. Determination of unexpected results was calculated using the method described in Example 1. above.

Cucumbers [5] = assay: Decay evaluation of cucumbers after cold storage (Example 3); details: for % Healthy Fruit (decay): 2-minute dip, 5 degrees Celsius 11.5 days, then room temperature, 100% minus % disease incidence
Source text: Cucumbers were harvested and waxed and maintained at room temperature until treatment. Cucumbers were divided into 9 equal sets. Each treatment type contained 11-13 cucumbers peaches and was repeated 3 times for a total of 33-39 peaches per treatment. For treatment, water, (S)-abscisic acid (“S-ABA”), methyl jasmonate or a mixture of S-ABA and methyl jasmonate were applied to cucumber after harvest via a 2-minute dip at the following concentrations: 1) water only; 2) 0.3 millimolar (“mM”) S-ABA; 3) 3 mM S-ABA; 4) 0.3 mM methyl jasmonate; 5) 3 mM methyl jasmonate; 6) 0.3 mM S-ABA and 0.3 mM methyl jasmonate; 7) 0.3 mM S-ABA and 3 mM methyl jasmonate; 8) 3 mM S-ABA and 0.3 mM methyl jasmonate or 9) 3 mM S-ABA and 3 mM methyl jasmonate. Each treatment includes 0.025% Latron B-1956® (available from J. R. Simplot Company) as an adjuvant. All cucumbers were subsequently dried for 30 minutes and then stored at 5 degrees Celsius for 11.5 days. Following cold storage all cucumbers were placed at room temperature for 4 days and then evaluated for electrolyte leakage and decay on each of days 1, 2,3 and 4. Decay evaluation was performed by counting the number of cucumbers displaying decay and calculating the percentage of affected cucumbers. Decay severity was evaluated using a 1-3 score system, wherein 1=low, 2=medium and 3=high. Healthy fruit was calculated by subtracting the % of disease incidence from 100%. Determination of unexpected results was calculated using the method described in Example 1. above.

Row | SMILES | Fold Change from Control (% Healthy Fruit) ([1]; 0.33 mM single active) | % Healthy Fruit ([1]; 0.33 mM single active) [%] | Fold Change from Control (% Healthy Fruit) ([1]; 3.3 mM single active) | % Healthy Fruit ([1]; 3.3 mM single active) [%] | Fold Change from Control (Flesh Browning Average Score) [2] | Flesh Browning Average Score [2] | Fold Change from Control (Flesh Mealiness Average Score) [3] | Flesh Mealiness Average Score [3] | Fold Change from Control (% Electrolyte Leakage) (Cucumbers [4]; 0.3 mM single active) | % Electrolyte Leakage (Cucumbers [4]; 0.3 mM single active) [%] | Fold Change from Control (% Electrolyte Leakage) (Cucumbers [4]; 3 mM single active) | % Electrolyte Leakage (Cucumbers [4]; 3 mM single active) [%] | Fold Change from Control (% Healthy Fruit, decay) (Cucumbers [5]; 0.3 mM single active) | % Healthy Fruit (decay) (Cucumbers [5]; 0.3 mM single active) [%] | Fold Change from Control (% Healthy Fruit, decay) (Cucumbers [5]; 3 mM single active) | % Healthy Fruit (decay) (Cucumbers [5]; 3 mM single active) [%]
1 | CC1=CC(=O)CC(C)(C)[C@@]1(O)/C=C/C(C)=C/C(=O)O [S-ABA, (S)-abscisic acid] | 0.35 | 17.3 | −0.33 | 8.6 | −0.016 | 3.03 | −0.006 | 1.66 | −0.05 | 61.3 | −0.05 | 61.3 | 0.05 | 82.1 | −0.29 | 55.7
2 | CC/C=C\CC1C(=O)CCC1CC(=O)OC (centres unmarked) [MJ, methyl jasmonate] | 1.18 | 28.0 | 2.26 | 41.8 | −0.09 | 2.79 | −0.10 | 1.50 | −0.06 | 60.3 | −0.07 | 59.7 | −0.22 | 61.5 | −0.09 | 71.4
